Test results published in ChEMBL document CHEMBL1152934, “Quinazolindione derivatives as potent 5-HT3A receptor antagonists” (Bioorg Med Chem, 2009).

Target: 5-hydroxytryptamine receptor 3A (Mus musculus) (UniProt P23979)
Assay: Antagonist activity at 5HT3A receptor expressed in Xenopus oocyte

Chain of 5-hydroxytryptamine receptor 3A (Mus musculus) (P23979 whole entry, looked up): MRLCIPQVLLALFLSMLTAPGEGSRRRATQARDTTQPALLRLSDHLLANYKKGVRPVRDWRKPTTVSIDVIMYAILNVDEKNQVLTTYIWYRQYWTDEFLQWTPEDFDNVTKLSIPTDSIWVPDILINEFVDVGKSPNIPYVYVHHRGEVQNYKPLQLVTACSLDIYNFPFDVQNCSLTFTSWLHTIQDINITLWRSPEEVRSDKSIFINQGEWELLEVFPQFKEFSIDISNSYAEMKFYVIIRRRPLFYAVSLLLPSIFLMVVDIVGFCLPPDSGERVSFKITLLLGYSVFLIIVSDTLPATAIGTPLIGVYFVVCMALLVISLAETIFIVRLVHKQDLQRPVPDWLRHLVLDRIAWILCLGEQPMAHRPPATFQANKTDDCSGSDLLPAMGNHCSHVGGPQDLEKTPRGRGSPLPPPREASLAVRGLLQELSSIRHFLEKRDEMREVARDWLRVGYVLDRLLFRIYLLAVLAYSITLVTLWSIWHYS

SMILES	IC50 [µM]
O=C(NCCN1CCCCC1)c1ccc2c(=O)n(Cc3ccccc3Cl)c(=O)[nH]c2c1	2.1
O=C(NCCN1CCOCC1)c1ccc2c(=O)n(Cc3ccc(F)cc3)c(=O)[nH]c2c1	19.8
CC1CCCCN1CCCNC(=O)c1ccc2c(=O)n(Cc3ccc(Cl)cc3)c(=O)[nH]c2c1 (configuration not stated)	11.6
CC1CCCCN1CCCNC(=O)c1ccc2c(=O)n(C3CCCCC3)c(=O)[nH]c2c1 (configuration not stated)	5.9
O=C(NCCN1CCOCC1)c1ccc2c(=O)n(Cc3ccc(Cl)cc3)c(=O)[nH]c2c1	15.8
CCC1CCCCN1CCNC(=O)c1ccc2c(=O)n(Cc3ccc(Cl)cc3)c(=O)[nH]c2c1 (configuration not stated)	13.6
O=C(NCCN1CCOCC1)c1ccc2c(=O)n(-c3ccc(F)cc3)c(=O)[nH]c2c1	57
